In US12433903B2 (priority 2021, dated 2025):
Entries after “also recorded” stand apart in the source; their conditions may differ. Read-outs that look alike come from different tables or passages of the source.

Key:
[1] = PK and Tmax after intraperitoneal administration; type: in vivo; settings: male C57BL/6 mice; for Tmax: mouse, in vivo
Description: The purpose of this study was to determine the pharmacokinetics and time of maximum plasma (Tmax) of the test articles (TA) CBD and Compound 3 following intraperitoneal (IP) administration to male C57BL/6 mice. This method of TA delivery, dose and mouse strain was to be used in a subsequent Pentylenetetrazol (PTZ) induced seizure model for the evaluation of the TA's for anti-epileptic activity.

PTZ-induced seizure = assay: PTZ-induced epilepsy (seizure) mouse model; type: in vivo; settings: 100 mg/kg IP, CBD 60 minutes, Compound 3 30 minutes prior to PTZ 80 mg/kg; for Survival Effects: mortality rate compared to the vehicle/PTZ group: 30 minute observation
Description: Mouse models using GABAa receptor antagonist Pentylenetetrazol (PTZ) are well defined and used as a standard for the identification of potential anticonvulsants to treat generalized clonic seizures (Loscher et al., 1991 Epilepsy Res 8:171-189). The purpose of this study was to evaluate and compare CBD to test article Compound 3, on their therapeutic effects in a mouse model of PTZ-induced seizure. To match up test article plasma concentration time max (Tmax) with the PTZ induced seizures; test articles were administered at 60 minutes and 30 minutes prior to PTZ administration respectively. Vehicle used for treatment groups was 10% EtOH/10% Tween 80/80% Saline.
Mice were acclimated to the procedure room for at least 30 minutes. Pentylenetetrazole (PTZ; Sigma Aldrich) was formulated in water to a concentration of 16 mg/mL. Injections of PTZ were made at a volume of 5 mL/kg to produce a final dose of 80 mg/kg.
A 30-minute maximum latency to seizure was imposed. • Clinical behavior was scored using the following adapted Racine scale: • Score 0, no seizures observed • Score 1, Behavioral arrest (freezing, fixed gaze, staring), vibrissae twitching, mouth or facial clonus • Score 2, Pop or jump, straub tail, foot splay, head nodding • Score 3, Forelimb clonus, extended forelimbs, multiple pops or jerks • Score 4, Rearing and bilateral forelimb clonus, Running and running/bouncing • Score 5, All limb clonus, rearing and falling (stay fallen on rear side) • Score 6, Tonic hindlimb extensions, cardiac arrest
Behavior was scored by an observer blind to treatment. The highest score reached during every 5 minute period during the 30 minutes after PTZ was administered was recorded. Additionally, the percent tonic-clonic (number of animals progressing to the highest seizure score), and percent mortality was also calculated.

[2] = test system: indomethacin induced intestinal injury; assay: Indomethacin-induced Crohn's disease in rats; type: in vivo
Protocol: The objective of this study was to determine the efficacy of Compound 1 and Compound 2 in a model of Crohn's disease (indomethacin induced intestinal injury) in rats.
The study design was identical for Compound 1 and Compound 2. On study day -3, rats were weighed and distributed into treatment groups based on body weight.
On study day 0, treatment was initiated and continue as indicated in the Study Design Tables below. Groups 2-6 received a subcutaneous injection of indomethacin (9 mg/kg, 1 ml/kg) in 5% sodium bicarbonate (Sterile Water). On study day 1, Groups 2-6 received a second subcutaneous injection of indomethacin (8 mg/kg, 1 ml/kg) in 5% sodium bicarbonate (Sterile Water). Live phase sample & data collection specifics are outlined below. On study day 4, animals will be euthanized, a section of the small intestine will be removed and weighed. Further necropsy sample and data collection is specified below. Overall efficacy of test articles will be based on body weight, small intestine weight (10 cm), small intestine gross score, and histopathology
At necropsy, the small intestines were evaluated visually and given a gross score according to the following criteria: 0=Normal. 0.5=Very Minimal thickening, multifocal in area at risk. 1=Minimal thickening, fairly diffuse in area at risk. 2=Mild to moderate small intestinal/mesenteric thickening throughout area at risk. 3=Moderate thickening with 1 or more definite adhesions that would be easy to separate. 4=Marked thickening with numerous hard to separate adhesions. 5=Severe intestinal lesion resulting in death.
Preserved 9-cm sections of small intestine were trimmed into 6 transverse sections collected at approximately equal intervals along the […] of the intestine, without bias toward lesion presence or absence. These trimmed sections were processed through graded alcohols and a clearing agent, infiltrated and embedded in paraffin, sectioned, and stained with hematoxylin and eosin (H&E).
Small intestine sections from all animals were examined microscopically by a board-certified veterinary pathologist, and observations were entered into a computer-assisted data retrieval system. Cross sections of small intestine were scored for inflammation and necrosis using the following criteria:
The area at risk for development of this lesion is generally approximately 30% of the total area of a cross section of small intestine where the mesentery attaches.
Inflammation is localized to the mesentery and intestinal area at risk for necrosis with slight extension on either side of it. […] In this case, inflammation is scored based on overall severity ranging from 0.5 (very minimal) to 5 (severe) without regard for the extent of necrosis. The mean score for necrosis and inflammation was calculated for each animal and these mean scores were then summed to arrive at a total score. Each section also has a measurement of total width of mucosal necrosis.

[3] = PK study after oral (PO) or intraperitoneal (IP) administration; type: in vivo, male Sprague Dawley rats; settings: CBG 30 mg/kg PO or IP; Compound 1 31.5 mg/kg PO; Compound 2 32.7 mg/kg PO
Protocol: This study evaluated the pharmacokinetics of (E)-2-(3,7-dimethylocta-2,6-dien-1-yl)-3-methoxy-5-pentylphenol (1) and (E)-2-(3,7-dimethylocta-2,6-dien-1-yl)-1,3-dimethoxy-5-pentylbenzene (2) following oral (PO) or intraperitoneal (IP) administration to male Sprague Dawley rats.
For the oral formulation the test article was added to the appropriate amount of Maisine and stirred until uniform. Next Labrasol was added to the formulation and allowed to stir until uniform. Finally, water will be slowly added to the stirring formulation to achieve the final volume.
For the IP formulation the test article was added to the appropriate amount of ethanol and stirred until uniform. Next, the appropriate amount of tween-20 was added to the stirred formulation. Finally, the appropriate amount of saline was slowly added to the stirred formulation to achieve the final volume.
Animals were fasted the evening prior to dosing with food returned at 4 h postdose, and the animals weighed on the morning of dose administration.
IP doses were administered via injection to the intraperitoneal region. PO doses were delivered into the stomach via syringe and gavage tube.
Blood was collected from via direct jugular stick or from the tail vein. Blood samples were kept on ice until being centrifuged at 3200 RPM for 10 minutes at ˜5° C. within 1 h of collection. Plasma was split into 2 cryovials in approximately equal volumes (0.05 mLs) and stored at −20° C.±5° C. until shipment.

[4] = test system: lipopolysaccharide (LPS)-induced inflammation; assay: Anti-inflammatory activity in a rat LPS model (serum cytokines); type: in vivo, Sprague Dawley rats; settings: PO QD x 4, LPS 5 mg/kg IP, 2 h after LPS
Protocol: This assay was employed to determine the efficacies of CBG, compound 1, and compound 2 against lipopolysaccharide (LPS)-induced inflammation in Sprague Dawley rats.
Eight- to 10-week-old male rats were treated with CBG, Compound 1, and Compound 2, or a positive control (cyclosporin A) for four days prior to treatment with LPS. Twenty-eight (28) Sprague Dawley male rats, 8-10 weeks old, were used for this study. Animals were randomized by weight into one of 7 treatment groups as shown in Table 10 below and treated for 4 days with either vehicle control (Groups 1 and 2), Cyclosporin A (Neoral) (Group 3), CBG at 30 mg/kg (Group 4), Compound 1 at 31.5 mg/kg (Group 5), Compound 2 at 32.7 mg/kg (Group 6) or CBG at 30 mg/kg (intraperitoneal/IP; Group 7). Groups 1-6 were dosed for 4 days by oral gavage; group 7 was dosed for 4 days by IP injection. After the 4th injection, Groups 2-7 received a single IP injection of LPS at 5 mg/kg to induce inflammation. Body weight was recorded every other day starting on the day of or day prior to the first day of treatment. A terminal body weight was recorded. General health and clinical signs were recorded once daily. Blood was collected to isolate immune cells at 2 hours after the LPS injection. […]
Serum samples (N=82) were processed and shipped to Inotiv Boulder for analysis. […] The samples were analyzed for cytokine levels using the RECYTMAG-65K Luminex™ kit. […]

UGT1A4 = biological target: T1, UGT1A4 (Homo sapiens, UniProt P22310); assay: UGT reaction phenotyping, UGT1A4; type: in vitro ADME; settings: glucuronide formed from trifluoperazine 1 μM, printed in the half-life column with *
T1 construct: purchased BD Biosciences
T1 sequence (P22310 29-534): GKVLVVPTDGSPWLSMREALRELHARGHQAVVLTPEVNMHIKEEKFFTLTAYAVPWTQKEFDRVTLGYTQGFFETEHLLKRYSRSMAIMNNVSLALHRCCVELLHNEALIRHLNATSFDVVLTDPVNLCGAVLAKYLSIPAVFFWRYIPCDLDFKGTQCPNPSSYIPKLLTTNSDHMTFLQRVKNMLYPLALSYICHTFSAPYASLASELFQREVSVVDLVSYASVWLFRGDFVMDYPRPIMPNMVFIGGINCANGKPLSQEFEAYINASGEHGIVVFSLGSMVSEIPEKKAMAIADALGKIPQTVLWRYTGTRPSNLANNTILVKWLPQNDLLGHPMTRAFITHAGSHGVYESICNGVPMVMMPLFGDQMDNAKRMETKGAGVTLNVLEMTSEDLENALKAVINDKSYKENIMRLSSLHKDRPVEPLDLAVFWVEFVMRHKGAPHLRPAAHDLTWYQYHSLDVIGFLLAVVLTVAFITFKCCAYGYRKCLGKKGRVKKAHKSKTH
Description: Experimental Summary: UGT Reaction Phenotyping (7 Isoforms).

**Q.** For `C=C(C)[C@@H]1CCC(C)=C[C@H]1c1c(O)cc(CCCCC)cc1O` [CBD, cannabidiol], which Tmax ([1]; 100 mg/kg, IP) is on record?
**A.** The Tmax was 60 min.

**Q.** What about the “Latency to Clonic Seizure Event compared to PTZ alone” value (PTZ-induced seizure) of the same compound?
**A.** The value was “did not yield a significantly different latency”.

**Q.** What about the “Latency to First Seizure Event compared to PTZ alone” value (PTZ-induced seizure) of the same compound?
**A.** The value was “did not result in a difference in latency to first seizure”.

**Q.** And the “Latency to Tonic Seizure Event compared to PTZ alone” value (PTZ-induced seizure)?
**A.** Its value is “did not yield a significantly different latency”.

**Q.** What about the “Percent of animals reaching Tonic-clonic Stage 6 compared to PTZ alone” value (PTZ-induced seizure) of the same compound?
**A.** Its value is “did not yield a significantly difference in proportion; also recorded: did not yield a significant difference in proportion”.

**Q.** And the “Racine scores over 5 minute intervals for 30 minutes compared to PTZ alone” value (PTZ-induced seizure)?
**A.** Its value is “did not yield a significant change in clinical score”.

**Q.** And the “Survival Effects: mortality rate compared to the vehicle/PTZ group” value (PTZ-induced seizure)?
**A.** The value was “did not yield a significantly reduced mortality rate”.

**Q.** For `CCCCCc1cc(OC)c(C/C=C(\C)CCC=C(C)C)c(OC)c1` [Compound 2, (E)-2-(3,7-dimethylocta-2,6-dien-1-yl)-1,3-dimethoxy-5-pentylbenzene], which “small intestine gross score compared to vehicle” value ([2]; Group 4 (Compound 1: 50 mg/kg PO)) is on record?
**A.** The value was “trend in lower small intestine gross score”.

**Q.** What about the “reduction of necrosis width, of vehicle” value ([2]; Group 5) of the same compound?
**A.** Its value is 99%.

**Q.** And the “histopathology scores vs vehicle and dexamethasone” value ([2]; Group 5 & 6)?
**A.** The value was “significantly lower”.

**Q.** What about the “necrosis width vs vehicle and dexamethasone” value ([2]; Group 5 & 6) of the same compound?
**A.** Its value is “significantly lower”.

**Q.** What about the “reduction of necrosis width, of vehicle” value ([2]; Group 6) of the same compound?
**A.** Its value is 96%.

**Q.** And the “Histopathology scores vs vehicle (Group 2)” value ([2]; Groups 4-6)?
**A.** Its value is “lower than the vehicle”.

**Q.** And the “necrosis width vs vehicle (Group 2)” value ([2]; Groups 4-6)?
**A.** The value was “lower than the vehicle”.

**Q.** What about the “small intestine gross score compared to vehicle” value ([2]; Groups 5-6 (Compound 1: 200 and 800 mg/kg PO)) of the same compound?
**A.** The value was “significant reductions in gross score”.

**Q.** What about the “small intestine weight compared to vehicle” value ([2]; all three treatment groups (Groups 4-6), PO days 0-3) of the same compound?
**A.** The value was “significantly lower”.

**Q.** What about the “body weight change from Study Day -3 (preventing weight loss)” value ([2]; all treatment groups (Groups 4-6), PO days 0-3, in comparison to dexamethasone (Compound 2: and vehicle)) of the same compound?
**A.** Its value is “all trended towards or had significant differences in preventing weight loss”.

**Q.** And the “glucuronidation / glucuronide formation in plasma (in words)” value [3]?
**A.** The value was “completely blocked glucuronide formation”.

**Q.** And the “reduction of IL-1B and IFNy, performance relative to CBG” value [4]?
**A.** Its value is “equal to or better than CBG”.

**Q.** With `C=C(C)[C@@H]1CCC(C)=C[C@H]1c1c(O)cc(CCCCC)cc1OC` [Compound 3, (1′R,2′R)-6-methoxy-5′-methyl-4-pentyl-2′-(prop-1-en-2-yl)-1′,2′,3′,4′-tetrahydro-[1,1′-biphenyl]-2-ol] as the compound, how does the “Cmax, fold greater than CBD” value ([1]; IP) read?
**A.** The value was 8 fold.

**Q.** And the “plasma PK Area Under the Curve (AUC), fold greater than CBD” value ([1]; IP)?
**A.** The value was “over 4 fold”.

**Q.** And the Tmax ([1]; plasma, 100 mg/kg IP, read-out: TMax (converted))?
**A.** The Tmax was 30 min.

**Q.** And the “Latency to Clonic Seizure Event compared to PTZ alone” value (PTZ-induced seizure)?
**A.** The value was “did not yield a significantly different latency; also recorded: strong trend toward longer latency”.

**Q.** What about the “Latency to First Seizure Event compared to PTZ alone” value (PTZ-induced seizure) of the same compound?
**A.** The value was “trended towards a longer latency”.

**Q.** And the “Latency to Tonic Seizure Event compared to PTZ alone” value (PTZ-induced seizure)?
**A.** The value was “significantly longer latency”.

**Q.** And the “Percent of animals reaching Tonic-clonic Stage 6 compared to PTZ alone” value (PTZ-induced seizure)?
**A.** The value was “significantly lower proportion”.

**Q.** And the “Racine scores over 5 minute intervals for 30 minutes compared to PTZ alone” value (PTZ-induced seizure)?
**A.** The value was “significant improvement in Racine scores”.

**Q.** And the “Survival Effects: mortality rate compared to the vehicle/PTZ group” value (PTZ-induced seizure)?
**A.** Its value is “significantly reduced mortality rate”.

**Q.** And the “reduction of IL-1B and IFNy, performance relative to CBG” value [4]?
**A.** The value was “equal to or better than CBG”.

**Q.** For `C[N+]1([C@@H]2O[C@H](C(=O)[O-])[C@@H](O)[C@H](O)[C@H]2O)CCN(CCCN2c3ccccc3Sc3ccc(C(F)(F)F)cc32)CC1` [Trifluoperazine Glucuronide], which “average peak area ratio at 60 min/average peak area ratio at 0 min” value (UGT1A4) is on record?
**A.** Its value is “*6.38”.
